Assay [1] deals with T1, hepatic lipase (HL) (Homo sapiens, UniProt P11150).
T1 construct: made in house; host or cells: COS cells (conditioned medium, partially purified)
T1 sequence (P11150 23-499): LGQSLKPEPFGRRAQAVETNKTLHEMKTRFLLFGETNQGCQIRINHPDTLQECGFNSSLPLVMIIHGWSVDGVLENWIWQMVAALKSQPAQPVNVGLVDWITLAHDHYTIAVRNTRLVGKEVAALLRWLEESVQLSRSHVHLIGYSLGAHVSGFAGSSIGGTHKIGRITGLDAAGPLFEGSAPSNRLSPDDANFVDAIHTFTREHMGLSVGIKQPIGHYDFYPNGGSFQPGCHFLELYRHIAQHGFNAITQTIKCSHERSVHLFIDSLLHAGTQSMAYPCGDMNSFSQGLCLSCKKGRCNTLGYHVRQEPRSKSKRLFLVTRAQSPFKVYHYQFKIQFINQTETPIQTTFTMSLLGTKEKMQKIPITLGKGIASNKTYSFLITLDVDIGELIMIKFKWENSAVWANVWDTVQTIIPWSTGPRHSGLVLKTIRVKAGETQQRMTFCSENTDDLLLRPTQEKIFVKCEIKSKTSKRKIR
In words: Hepatic lipase (HL) enzymatic assay, fluorescent substrate A10070 in DMPG vesicles. Format: biochemical. The following applies: HL partially purified from conditioned media of COS cells; compound preincubated 30 min at 37° C; read-out: HL IC50. The procedure, abridged:
(§1)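 EL from conditioned medium of HT-1080 cells engineered to overexpress endogenous EL; HL partially purified from conditioned medium of HL-overexpressing COS cells. Enzyme preincubated with compound 30 min at 37° C in 50 mM HEPES pH 8.0, 50 mM NaCl, 1 mM CaCl2; DMPG vesicles carrying FRET substrate (0.11 mole fraction) then added.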

Assay [2] addresses T2, Endothelial lipase (EL) (Homo sapiens, UniProt Q9Y5X9).
T2 construct: HT-1080 cells that were transformed using RAGE technology (Athersys) to overexpress endogenous EL; endogenous in cells; conditioned medium used
T2 sequence (Q9Y5X9 21-500): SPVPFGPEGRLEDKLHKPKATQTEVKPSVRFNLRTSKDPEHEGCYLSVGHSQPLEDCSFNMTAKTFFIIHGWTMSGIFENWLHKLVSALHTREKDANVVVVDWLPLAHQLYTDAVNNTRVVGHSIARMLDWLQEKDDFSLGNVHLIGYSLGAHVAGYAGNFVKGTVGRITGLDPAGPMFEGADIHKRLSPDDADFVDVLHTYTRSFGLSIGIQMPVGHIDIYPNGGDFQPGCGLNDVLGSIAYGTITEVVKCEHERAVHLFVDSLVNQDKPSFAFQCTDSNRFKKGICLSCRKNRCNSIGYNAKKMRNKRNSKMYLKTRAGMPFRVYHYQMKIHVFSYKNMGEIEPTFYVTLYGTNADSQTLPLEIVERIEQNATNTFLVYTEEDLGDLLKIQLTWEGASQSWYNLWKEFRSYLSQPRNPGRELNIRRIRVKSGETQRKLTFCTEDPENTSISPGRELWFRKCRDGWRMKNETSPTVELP
Kind of assay: Endothelial lipase (EL) enzymatic assay, fluorescent substrate A10070 in DMPG vesicles. In kind it is biochemical. As to conditions: EL from conditioned media of HT-1080 cells; compound preincubated 30 min at 37° C; read-out: EL IC50. The essentials:
as §1

Where only a bound is given, the exact number is not on record here.

Consider `COCc1ccc(-c2ccc3nc(C(c4nnc(CNS(N)(=O)=O)o4)S(=O)(=O)Cc4cc(Cl)cc(Cl)c4)sc3c2)cc1` (centres unmarked) [Example 235, N-({5-[(3,5-dichlorophenyl)methanesulfonyl({6-[4-(methoxymethyl)phenyl]-1,3-benzothiazol-2-yl})methyl]-1,3,4-oxadiazol-2-yl}methyl)aminosulfonamide], for which the IC50 in assay [1] came to 6 nM; in assay [2], 4 nM.

Turning to `NS(=O)(=O)NCc1nnc(C(c2nc3ccc(-c4ccc(F)nc4)cc3s2)S(=O)(=O)Cc2ccc(OC(F)(F)F)cc2)o1` (centres unmarked) [Example 239, N-[(5-{[6-(6-fluoropyridin-3-yl)-1,3-benzothiazol-2-yl] [4-(trifluoromethoxy)phenyl]methanesulfonylmethyl}-1,3,4-oxadiazol-2-yl)methyl] aminosulfonamide], the IC50 amounted to 9 nM in assay [1] and 4 nM in assay [2].

Regarding `Cc1cc(-c2ccc3nc(C(c4nnc(CNS(N)(=O)=O)o4)S(C)(=O)=O)sc3c2)n(C)n1` (centres unmarked) [Example 118, N-[(5-{[6-(1,3-dimethyl-1H-pyrazol-5-yl)-1,3-benzothiazol-2-yl](methylsulfonyl)methyl}-1,3,4-oxadiazol-2-yl)methy] sulfuric diamide], the results for the IC50 in assay [1] and in assay [2] were 396 nM and 18 nM, respectively.

Regarding `COCCNC(=O)c1cccc(-c2ccc3nc(C(c4nnc(CNS(N)(=O)=O)o4)S(=O)(=O)CCC(F)(F)F)sc3c2)c1` (centres unmarked) [Example 199, N-(2-methoxyethyl)-3-(2-((5-((sulfamoylamino)methyl)-1,3,4-oxadiazol-2-yl)((3,3,3-trifluoropropyl)sulfonyl)methyl)-1,3-benzothiazol-6-yl)benzamide], the 50% inhibitory concentration (IC50) in assay [1] was 1020 nM; in assay [2] it was less than 10 nM.

With `NS(=O)(=O)NCc1nnc(C(c2nc3ccc(-c4ccc(C(F)(F)F)cc4)cc3s2)S(=O)(=O)Cc2ccccc2)o1` (centres unmarked) [Example 128, N-((5-((benzylsulfonyl)(6-(4-(trifluoromethyl)phenyl)-1,3-benzothiazol-2-yl)methyl)-1,3,4-oxadiazol-2-yl)methyl) sulfamide], the IC50 in assay [1] and in assay [2] was less than 10 nM throughout.

For the compound `CS(=O)(=O)C(c1nnc(CNS(N)(=O)=O)o1)c1nc2ccc(-c3cccc(C(=O)N4CC[C@H](O)C4)c3)cc2s1` (stereo partly drawn) [Example 266, N-({5-[(6-{3-[(3S)-3-hydroxypyrrolidine-1-carbonyl]phenyl}-1,3-benzothiazol-2-yl) (methanesulfonyl)methyl]-1,3,4-oxadiazol-2-yl}methyl)aminosulfonamide], the IC50 in assay [1] stood at 94 nM; in assay [2] it was 13 nM.

For `O=C(Cc1nnc(C(c2nc3ccc(-c4ccc(C(=O)N5CCOCC5)cc4)cc3s2)S(=O)(=O)Cc2ccccc2)o1)NC1CCCC1` (centres unmarked) [Example 180, 2-(5-((benzylsulfonyl)(6-(4-(4-morpholinylcarbonyl)phenyl)-1,3-benzothiazol-2-yl)methyl)-1,3,4-oxadiazol-2-yl)-N-cyclopentylacetamide], the IC50 in assay [1] was 44 nM; in assay [2], less than 10 nM.

Turning to `CS(=O)(=O)C(c1nnc(CNS(N)(=O)=O)o1)c1nc2ccc(Br)cc2s1` (centres unmarked) [Example 114, N-((5-((6-bromo-1,3-benzothiazol-2-yl)(methylsulfonyl)methyl)-1,3,4-oxadiazol-2-yl)methyl) sulfamide], the figures for the IC50 in assay [1] and in assay [2] were 220 nM and less than 10 nM, respectively.

Take `COCCS(=O)(=O)C(c1nnc(CNS(N)(=O)=O)o1)c1nc2ccc(-c3cnn(C)c3)cc2s1` (centres unmarked) [Example 116, N-((5-(((2-methoxyethyl)sulfonyl)(6-(1-methyl-1H-pyrazol-4-yl)-1,3-benzothiazol-2-yl)methyl)-1,3,4-oxadiazol-2-yl)methyl) sulfamide]: the IC50 in assay [1] is 143 nM; in assay [2], less than 10 nM.

As to `CS(=O)(=O)C(c1nnc(C[C@@H]2NS(=O)(=O)NC2=O)o1)c1nc2cc(F)c(-c3ccccc3)cc2s1` (stereo partly drawn) [Example 168, (4S)-4-((5-((5-fluoro-6-phenyl-1,3-benzothiazol-2-yl)(methylsulfonyl)methyl)-1,3,4-oxadiazol-2-yl)methyl)-1,2,5-thiadiazolidin-3-one 1,1-dioxide], the IC50 in assay [1] was 19 nM; in assay [2] it was less than 10 nM.

`CS(=O)(=O)C(c1nnc(CNS(N)(=O)=O)o1)c1nc2ccc(-c3cccc(C(=O)N4CCC4)c3)cc2s1` (centres unmarked) [Example 264, N-{[5-({6-[3-(azetidine-1-carbonyl)phenyl]-1,3-benzothiazol-2-yl} (methanesulfonyl)methyl)-1,3,4-oxadiazol-2-yl]methyl}aminosulfonamide]: the IC50 in assay [1] amounted to 37 nM; in assay [2] it was 19 nM.

In the case of `CN1CCN(C(=O)c2cccc(-c3ccc4nc(C(c5nnc(CNS(N)(=O)=O)o5)S(=O)(=O)CC5CC5)sc4c3)c2)CC1` (centres unmarked) [Example 197, N-((5-(((cyclopropylmethyl)sulfonyl)(6-(3-((4-methyl-1-piperazinyl)carbonyl)phenyl)-1,3-benzothiazol-2-yl)methyl)-1,3,4-oxadiazol-2-yl)methyl)sulfamide], the IC50 in assay [1] is 2570 nM; in assay [2] it was less than 10 nM.

`CC(C)CN(C)C(=O)c1cccc(-c2ccc3nc(C(c4nnc(CC5(C)NC(=O)NC5=O)o4)S(C)(=O)=O)sc3c2)c1` (centres unmarked) [Example 226, 3-{2-[methanesulfonyl({5-[(4-methyl-2,5-dioxo-imidazolidin-4-yl)methyl]-1,3,4-oxadiazol-2-yl})methyl]-1,3-benzothiazol-6-yl}-N-methyl-N-(2-methylpropyl)benzamide]: the IC50 in assay [1] was found to be 53 nM; in assay [2], 35 nM.

As for `NS(=O)(=O)NCc1nnc(C(c2nc3ccc(-c4cccc(Cl)c4)cc3s2)S(=O)(=O)Cc2ccccc2)o1` (centres unmarked) [Example 129, N-((5-((benzylsulfonyl)(6-(3-chlorophenyl)-1,3-benzothiazol-2-yl)methyl)-1,3,4-oxadiazol-2-yl)methyl) sulfamide], the IC50 in assay [1] and in assay [2] was less than 10 nM in each case.

Consider `COCc1ccc(-c2ccc3nc(C(c4nnc(CNS(N)(=O)=O)o4)S(=O)(=O)Cc4ccccc4F)sc3c2)cc1` (centres unmarked) [Example 240, N-({5-[(2-fluorophenyl)methanesulfonyl ({6-[4-(methoxymethyl)phenyl]-1,3-benzothiazol-2-yl})methyl]-1,3,4-oxadiazol-2-yl}methyl) aminosulfonamide], for which the IC50 in assay [1] is 3 nM; in assay [2] it was 2 nM.

On to `CCCOCCCNC(=O)Cc1nnc(C(c2nc3ccc(-c4ccc(C(=O)N5CCOCC5)cc4)cc3s2)S(C)(=O)=O)o1` (centres unmarked) [Example 175, 2-(5-((Methylsulfonyl)(6-(4-(4-morpholinylcarbonyl)phenyl)-1,3-benzothiazol-2-yl)methyl)-1,3,4-oxadiazol-2-yl)-N-(3-propoxypropyl)acetamide], for which the IC50 amounted to 89 nM in assay [1] and 12 nM in assay [2].

Consider `COC1(C)CN(C(=O)c2cccc(-c3ccc4nc(C(c5nnc(CC6(C)NC(=O)NC6=O)o5)S(C)(=O)=O)sc4c3)c2)C1` (centres unmarked) [Example 222, 5-({5-[methanesulfonyl({6-[3-(3-methoxy-3-methyl-azetidine-1-carbonyl)phenyl]-1,3-benzothiazol-2-yl})methyl]-1,3,4-oxadiazol-2-yl}methyl)-5-methyl-imidazolidine-2,4-dione], for which the IC50 in assay [1] worked out at 162 nM; in assay [2] it was 8 nM.

Take `COc1cc2nc(C(c3nnc(CNS(=O)(=O)NC(=O)OC(C)(C)C)o3)S(C)(=O)=O)sc2cc1-c1cnn(C)c1` (centres unmarked) [Example 159, 2-methyl-2-propanyl {[(5-{[5-methoxy-6-(1-methyl-1H-pyrazol-4-yl)-1,3-benzothiazol-2-yl](methylsulfonyl)methyl}-1,3,4-oxadiazol-2-yl)methyl]sulfamoyl}carbamate]: the values for the IC50 in assay [1] and in assay [2] were 14 nM and 13 nM, respectively.

On to `Cn1cc(-c2cc3sc(C(c4nnc(CNC(=O)OC(C)(C)C)o4)S(=O)(=O)Cc4ccccc4)nc3cc2F)cn1` (centres unmarked) [Example 166, tert butyl ((5-((benzylsulfonyl)(5-fluoro-6-(1-methyl-1H-pyrazol-4-yl)-1,3-benzothiazol-2-yl)methyl)-1,3,4-oxadiazol-2-yl)methyl)carbamate], for which the IC50 was determined as 32 nM in assay [1] and 23 nM in assay [2].

Source of the values: patent publication US20140011799A1 (Bristol-Myers Squibb Company, priority 2012, published 2014).
